Measurements: patent EP3156398A1, “AGONISTS OF THE CHEMOKINE RECEPTOR CXCR3” (Friedrich-Alexander-Universität Erlangen-Nürnberg, priority 2015, dated 2017)

Columns and labels:
FLAG-CXCR3 = target: T1, FLAG-CXCR3 (Homo sapiens, UniProt P49682); assay: ELISA based internalization assay; type: cell-based; settings: CXCL11 100 nM, modulators 10 µM, 1h at 37°C; Figure 4B
T1 construct: expressed in transfected cells; host or cells: HEK293T cells, transient
T1 sequence (P49682 1-368): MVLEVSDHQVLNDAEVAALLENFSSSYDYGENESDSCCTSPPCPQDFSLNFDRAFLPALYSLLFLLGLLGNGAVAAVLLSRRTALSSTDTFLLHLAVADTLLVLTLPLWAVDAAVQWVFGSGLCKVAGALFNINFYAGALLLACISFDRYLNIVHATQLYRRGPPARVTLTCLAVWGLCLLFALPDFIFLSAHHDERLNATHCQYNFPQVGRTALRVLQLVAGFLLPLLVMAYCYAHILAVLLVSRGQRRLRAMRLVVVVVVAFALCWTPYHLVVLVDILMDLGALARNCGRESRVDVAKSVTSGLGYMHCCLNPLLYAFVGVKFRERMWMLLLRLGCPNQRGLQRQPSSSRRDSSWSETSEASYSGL
Protocol: Enzyme-linked immunosorbent assay based internalization assay. The day after transfection with FLAG-CXCR3, cells were trypsinized, resuspended into fresh culture medium and plated in poly(D-lysine)-coated 48-well assay plates. 48h after transfection the medium was replaced by fresh DMEM w/o serum containing one concentration of the endogenous ligand CXCL11 (100 nM) or the positive allosteric modulators (10 µM) and incubated for 1h at 37°C. The cells were fixed with 4% formaldehyde solution and stained with monoclonal Anti-Flag antibody (Sigma-Aldrich Life Science, St. Louis, MO) and subsequently with Anti-Mouse IgG-Peroxidase Antibody produced in rabbit. […] The reaction was stopped with 1M H2SO4 and the resulting color was detected at 492 nm using a microplate reader Clariostar (BMG labtech, Ortenberg, Germany).
The effect of FAUC1036 on receptor internalization was investigated by scanning laser confocal microscopy and ELISA-based assay. […] The quantification of receptor internalization upon the treatment with the endogenous agonists and with either β-arrestin 2 biased FAUC1036 or G-protein biased FAUC1104 was performed with ELISA based assay. The HEK293T cells transiently expressing FLAG-CXCR3 were stimulated with compounds and chemokines for one hour, washed, fixed and the amount of FLAG-CXCR3 present on the surface was detected by anti-FLAG antibody.

[1] = system: HEK293 cells transiently transfected with CXCR3; assay: Transwell migration assay; type: cell-based, human; settings: for influence on CXCL11 induced migration: cells pre-incubated 15 minutes, compound in both chambers, CXCL11 as chemoattractant, Figure 5B; for induced migration compared to buffer control: compound applied to the source reservoir, on its own, 5 h, Figure 5A
Protocol: Transwell migration assay. HEK-293 cells were maintained in DMEM medium supplemented with 10% FBS and 1% penicillin/streptomycin. For DNA transfection, 5 µg plasmid DNA (CXCR3) was mixed with TE buffer to give a final of 105 µl solution and 15 µl CaCl2 (2M) was added. The DNA mixture was then dripped into 120 µl 2x HBSS solution, and the mixture was allowed to form calcium-phosphate precipitates for 45 minutes. The DNA/calcium-phosphate precipitate was dripped onto HEK293 cells (50% confluent in T25 flask), where the medium had been renewed and reduced to 1.5 ml 30 minutes prior to transfection. The cells were split and used for assays 48 h after transfection.
Migration of serum-starved HEK293 cell transiently transfected with CXCR3 was assessed using Transwell™ membranes (Costar; 8-µm pore). Filters were coated with 10 µg•mL^-1 fibronectin (in PBS 30 minutes at room temperature). The fibronectin solution was removed and the filters allowed to air-dry. The filters were placed in a 24-well dish that contained low serum (0.2%) DMEM supplemented with agonists or control buffer. HEK293 cells suspended in 0.2% serum DMEM containing test compounds were added to the upper chamber (1 × 10^5 cells/well). Cells were allowed to migrate for 5 h at 37 °C. Nonmigrated cells were removed from the top filter surface with a cotton swab. Migrated cells, attached to the bottom surface, were fixed in 3.7% formaldehyde (in PBS) and dyed with crystal violet. Transmigrated cells were counted in 5 predefined areas on the membrane using 20X objective.
To investigate the influence of FAUC1036 and FAUC1104 on CXCR3 induced migration, the inventors used these compounds alongside CXCL11 in a standard transwell assay with HEK293 cells transiently transfected with CXCR3. […] To test whether FAUC1036 and FAUC1104 influence CXCL11 induced migration, the inventors pre-incubated the cells with these compounds for 15 minutes and then set up the migration assay in the presence of either compound in both the top chamber (sink) containing the cells and in the lower chamber (source) containing CXCL11 as chemoattractant.

CC(C)(C)OC(=O)N[C@@H](CCCCNC(=O)[C@@H]1Cc2ccccc2CN1C(=O)CCC(=O)c1ccccc1)C(=O)NCC(c1ccccc1)c1ccccc1 [Compound 11, Tert-butyl ((S)-1-((2,2-diphenylethyl)amino)-1-oxo-6-((S)-2-(4-oxo-4-phenylbutanoyl)-1,2,3,4-tertahydroisoquinoline-3-carboxamido)hexan-2-yl)carbamate]
receptor internalization (ELISA quantification) (FLAG-CXCR3): induced receptor internalization
chemotaxis (result in words) [1]: weak chemotaxis
influence on CXCL11 induced migration [1]: no antagonizing effect
induced migration compared to buffer control [1]: approximately 0.25 fold

COc1ccc(C(=O)CCC(=O)N2Cc3ccccc3C[C@H]2C(=O)NCCCC[C@H](NC(=O)OC(C)(C)C)C(=O)NCC(c2ccccc2)c2ccccc2)cc1 [Compound 14, Tert-butyl ((S)-1-((2,2-diphenylethyl)amino)-6-((S)-2-(4-(4-methoxyphenyl)-4-oxobutanoyl)-1,2,3,4-tetrahydroisoquinoline-3-carboxamido)-1-oxohexan-2-yl)carbomate]
receptor internalization (ELISA quantification) (FLAG-CXCR3): does not induce receptor internalization
chemotaxis (result in words) [1]: strong chemotaxis
influence on CXCL11 induced migration [1]: significantly higher CXCL11 induced migration
induced migration compared to buffer control [1]: approximately 0.25 fold
